Tests used:
[1] = target: Glutamate NMDA receptor; experiment: Tested for in vitro binding affinity against NMDA receptor by using [3H]-CGP- 39653 as radioligand in rat forebrain membranes; format: cell membranes, Membrane
[2] = target: Glutamate NMDA receptor; experiment: Tested for in vitro binding affinity against NMDA receptor by using [3H]-CGP- 39653 as radioligand in rat forebrain membranes.; format: cell membranes

NC(/C=C(\CCCCCCNC(=O)c1ccccc1)CP(=O)(O)O)C(=O)O (stereo not given)
IC50 [1]: 106 nM

[N-]=[N+]=Nc1ccc(C(=O)NCCCCCC/C(=C\C(N)C(=O)O)CP(=O)(O)O)cc1 (stereo not given)
IC50 [2]: 38 nM

[N-]=[N+]=Nc1ccc(C(=O)NCCCCCC/C(=C\C(N)C(=O)O)CP(=O)(O)O)c(O)c1 (stereo not given)
IC50 [2]: 36 nM

NCCCCCC/C(=C\C(N)C(=O)O)CP(=O)(O)O (stereo not given)
IC50 [2]: 42 nM

[N-]=[N+]=Nc1ccc(C(=O)NCCCCCC/C(=C\C(N)C(=O)O)CP(=O)(O)O)c(O)c1I (stereo not given)
IC50 [2]: 34 nM

— ChEMBL document CHEMBL1126911, “Synthesis and binding properties of 2-amino-5-phosphono-3-pentenoic acid photoaffinity ligands as probes for the glutamate recognition site of the NMDA receptor” (J Med Chem, 1993)
